This is an account of results in patent US20250017921A1, “PHARMACEUTICAL COMBINATION AND TUMOR TREATMENT” (IDEAYA Biosciences Inc., priority 2020, published 2025).

The test system of data set [1] is cMET, MAPK, PI3K and PKC signaling pathways in 92.1 cells. Description: Pharmacodynamic western blot, 92.1 cells. The data set is classed as cell-based, human. As for the experimental part:
(§1) For all experiments, cells were seeded 24 h before treatment at 2.5×10^6 cells in 10 cm^2 tissue culture plates in 10% RPMI media. For IDE196-HGF combinations, cells were treated with the IDE196 and HGF combinations in 2% RPMI media for 2 hrs according to Table 3. For IDE196-MET inhibitor experiments, 24 h after seeding, the media was replaced with the appropriate inhibitor combinations in 2% RPMI media in the presence of 1.23-3.7 ng/ml HGF for 2 h, according to Table 4.
(§2) For all experiments, cells were washed with ice cold PBS and protein lysates were prepared by lysing cells in a RIPA buffer containing protease and phosphatase inhibitors. Protein samples (15ug/well) were separated on 4-20% Bis-Tris SDS gels and electroblotted to nitrocellulose membranes using iBlot (Invitrogen). The membranes were incubated for 1b in Superblock buffer at RT, followed by overnight incubation with primary antibody at 4° C. The primary antibodies Phospho-Met (Tyr1234/1235) (3077S), cMET (3148S), Phospho-Akt (Ser473) (4060S), Akt (pan) (2920S), Phospho-MARCKS (Ser159/163) (11992S), MARCKS (5607S), PKCδ (9616S), Phospho-p44/42 MAPK (ERK1/2) (Thr202/Tyr204) (4377S), pRAS40 were obtained from Cell Signaling. Total ERK (ab184699) and PKC delta (phospho S299) (ab133456) antibodies were from Abcam. After three washes in PBST, the membrane was incubated with HRP-conjugated secondary antibody for 1 h at RT, washed thrice in PBST, and detected using enhanced chemiluminescence (Biorad Chemidoc XRS).
On the technique in general: Immunoblotting shows a protein as a band on a membrane.

Data set [2] deals with 92.1 cells. Nature of the data set: Cell Titer-Glo cell viability, 92.1 cells. It counts as cell-based, human. As for the experimental part:
(§3) Luminescence was read using a plate reader (TECAN). Average luminescence of cells treated with DMSO was set to 100% and the % viable cells were calculated accordingly. Synergy/antagonism was analyzed using Combenefit software. […] Interactions between various combinations were evaluated using Bliss, HSA, and Loewe synergy/antagonism models. […] Cell viability was measured by CTG three days/five days after treatment.
(§4) After 24 hrs, the media was changed to 2% FBS/RPMI media. Further, the cell lines were screened for sensitivity to the PKC inhibitor, IDE196 alone or in combination with Hepatocyte growth factor (HGF) (Peprotech); at increasing doses according to Table 1 using a TECAN digital dispenser.

The subject of data set [3] is MEL-202 cells. Nature of the data set: Cell Titer-Glo cell viability, MEL-202 cells. It counts as cell-based, human. As for the experimental part:
as §3, §4
(In general: In ATP-based viability assays light output follows the ATP content of the culture.)

Data set [4] has as its system cMET, MAPK, PI3K and PKC signaling pathways in MM28 cells. Nature of the data set: Pharmacodynamic western blot, MM28 cells. It counts as cell-based, human. The method, then:
as §1, §2

For data set [5], the system named is MM28 cells. Description: Cell Titer-Glo cell viability, MM28 cells. It counts as cell-based, human. As for the experimental part:
as §3, §4

For data set [6], the system named is cMET, MAPK, PI3K and PKC signaling pathways in MEL-202 cells. Nature of the data set: Pharmacodynamic western blot, MEL-202 cells. It counts as cell-based, human. As for the experimental part:
as §1, §2

The conditions of data set [7]: patient; cited from earlier work.
The mark [8] stands for this setting: presence of HGF, IDE196 alone and in combination with crizotinib.
[9] abbreviates: presence of HGF, IDE196 alone, up to highest concentrations.
The mark [10] stands for this setting: presence of HGF, crizotinib alone or in combination with IDE196.
The mark [11] stands for this setting: dose-dependent, not inhibited by addition of IDE196.
The mark [12] stands for this setting: at or above 3.7 ng/mL HGF, all concentrations of IDE196, HSA, Loewe, Bliss.

As usually defined, the EC50 is the concentration at which the effect is half-maximal. For the compound `CC1(N)CCN(c2cccnc2NC(=O)c2nc(-c3ncccc3C(F)(F)F)cnc2N)CC1` [IDE196, 3-amino-N-(3-(4-amino-4-methylpiperidin-1-yl)pyridin-2-yl)-6-(3-(trifluoromethyl)pyridin-2-yl)pyrazine-2-carboxamide], the “pMARCKS and pPKC-delta” value in data set [1] (IDE196 treatment alone), in data set [4] (IDE196 treatment alone) and in data set [6] (IDE196 treatment alone) was “dose-dependent decrease” throughout. For the same compound, the “dose at which pERK was inhibited” value in data set [1] (absence of HGF, 2 h) was “above 400 nM”; in data set [4] (absence of HGF, 2 h), “above 400 nM”; in data set [6] (absence of HGF, 2 h) it was “above 400 nM”. In addition, the “effect on pAKT or pPRAS40” value in data set [1] (presence of HGF, IDE196 alone) is listed as “no effect”; in data set [4] (presence of HGF, IDE196 alone), “no effect”; in data set [6] (presence of HGF, IDE196 alone) it was “no effect”. Also, the “pMARCKS or pPKCδ” value in data set [1] (setting [8]), in data set [4] (setting [8]) and in data set [6] (setting [8]) was “dose-dependent decrease” each time. Moreover, the pERK inhibition result in data set [1] (setting [9]), in data set [4] (setting [9]) and in data set [6] (setting [9]) was “did not inhibit” throughout. Further, the EC50 in data set [2] (Homo sapiens, 72 h, IDE196 alone, day 3, N=3, read-out: inhibition of cell viability EC50) is 0.113 µM; in data set [3] (Homo sapiens, Mel202, 72 h, IDE196 alone, day 3, N=3, read-out: inhibition of cell viability EC50), 0.25 µM; in data set [5] (Homo sapiens, 120 h, IDE196 alone, day 5, N=3, read-out: inhibition of cell viability EC50), 0.342 µM.
In the case of `CNC(=O)c1ccc(-c2cnc3ncc(Cc4ccc5ncccc5c4)n3n2)cc1F` [capmatinib, reference compound], the “synergy with IDE196 on cell viability” value in data set [2] (1.23 ng/ml HGF, capmatinib, any dose combination) is given as “did not synergize”; in data set [3] (1.23 ng/ml HGF, all doses of capmatinib, starting at 80 nM IDE196), “high synergy”; in data set [5] (1.23 ng/ml HGF, capmatinib, all the doses) it was “high synergy”. Also, the half-life result in data set [7] is “about 6.5 hours”.
For `C[C@@H](Oc1cc(-c2cnn(C3CCNCC3)c2)cnc1N)c1c(Cl)ccc(F)c1Cl` [crizotinib, reference compound], in data set [1] (presence of HGF, higher concentrations of crizotinib alone or in combination with IDE196), the “pERK, pAKT and pPRAS40” value was “modest decrease”. In addition, the “HGF induced pMET, pERK, pAKT and pPRAS40 levels” value in data set [4] (setting [10]) and in data set [6] (setting [10]) was “strongly inhibited” each time.
Consider “HGF: Hepatocyte growth factor (Peprotech), the endogenous ligand for the extracellular cMET receptor”, for which the “pERK (MAPK signaling), pAKT and pPRAS40 (PI3K signaling) on addition of HGF” value in data set [1] (setting [11]), in data set [4] (setting [11]) and in data set [6] (setting [11]) was “induced” each time. Also, the “antagonism of IDE196 induced growth inhibition by HGF” value is given as “modest antagonism” in data set [2] (1.23 to 33.33 ng/ml HGF, HSA, Loewe, Bliss); “high antagonism” in data set [3] (setting [12]); “high antagonism” in data set [5] (setting [12]). Further, the results for the “cell viability on exposure to exogeneous HGF” value in data set [2] (HGF alone), in data set [3] (HGF alone) and in data set [5] (HGF alone) were “not”, “increased cell viability significantly” and “increased cell viability significantly”, respectively.
